Laboratory results as given in patent US11498896B2 (The Broad Institute, Inc., priority 2014, dated 2022).
pEC50, pIC50: −log10 of the molar value.

Columns and labels:
human D2R/β-arrestin [1] = target: T1, human D2R/β-arrestin (Homo sapiens (Human), UniProt P14416); experiment: cell-based; details: cAMP Antagonist
human D2R/β-arrestin [2] = target: T1, human D2R/β-arrestin; experiment: β-arrestin agonist assay (PathHunter); format: cell-based; details: CHO-K1 cells expressing human D2R/β-arrestin; agonist mode
Procedure: The detection reagent (9.6 μL, Buffer:Emerald II:Galactor-Star in a 19:5:1 ratio, i.e., 14.06 mL:3.7 mL:0.74 mL=18.5 mL) was then added to the agonist plates.

human D2R/β-arrestin [3] = target: T1, human D2R/β-arrestin; experiment: cell-based; details: β-arrestin Antagonist
human D2R/β-arrestin [4] = target: T1, human D2R/β-arrestin; experiment: Gi/cAMP agonist assay (Lance Ultra cAMP, forskolin); format: cell-based; details: CHO-K1 cells expressing human D2R/β-arrestin; agonist mode, 2.5 μM forskolin
Procedure: Eu-cAMP tracer solution (10 μl, PerkinElmer, 360 μl of Tracer in 17.64 ml kit buffer) and ULight-anti-cAMP solution (10 μl, 120 μL antibody in 17.88 ml kit buffer) was then added to each well.

[5] = CHO-K1 cells expressing human D2R/β-arrestin, antagonist mode, 2.5 μM forskolin and 2.7 nM quinpirole
[6] = CHO-K1 cells expressing human D2R/β-arrestin, antagonist mode, quinpirole 130 nM

T1 sequence (P14416 whole entry): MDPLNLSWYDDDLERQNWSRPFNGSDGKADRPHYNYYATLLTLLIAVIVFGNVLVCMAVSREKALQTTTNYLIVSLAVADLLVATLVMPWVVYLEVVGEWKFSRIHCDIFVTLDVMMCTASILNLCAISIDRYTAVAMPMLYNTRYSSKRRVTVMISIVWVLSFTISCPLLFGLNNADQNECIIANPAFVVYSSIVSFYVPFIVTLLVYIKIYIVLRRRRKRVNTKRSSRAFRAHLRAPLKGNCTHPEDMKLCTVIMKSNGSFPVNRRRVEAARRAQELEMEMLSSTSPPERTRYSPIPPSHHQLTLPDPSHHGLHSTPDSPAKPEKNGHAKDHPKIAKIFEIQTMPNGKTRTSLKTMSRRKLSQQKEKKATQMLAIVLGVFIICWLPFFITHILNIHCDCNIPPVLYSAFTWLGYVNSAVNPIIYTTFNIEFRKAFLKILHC

| Structure (SMILES) | pIC50 (human D2R/β-arrestin [1]; [5]) | pEC50 (human D2R/β-arrestin [2]) | pIC50 (human D2R/β-arrestin [3]; [6]) | pEC50 (human D2R/β-arrestin [4]) | pIC50 (human D2R/β-arrestin [1]) | pIC50 (human D2R/β-arrestin [3]) |
| --- | --- | --- | --- | --- | --- | --- |
| CC1(NC(=O)C(F)(F)F)CCN(C[C@H]2COc3ccccc3O2)CC1 [Compound 212, (S)—N-(1-((2,3-dihydrobenzo[b][1,4]dioxin-2-yl)methyl)-4-methylpiperidin-4-yl)-2,2,2-trifluoroacetamide] | < 4.52 | 5.00 to 6.00 | 6.00 to 7.00 | > 7.00 | – | – |
| CC(=O)N(C)C1(C)CCN(C[C@H]2COc3ccccc3O2)CC1 [Compound 213, (S)—N-(1-((2,3-dihydrobenzo[b][1,4]dioxin-2-yl)methyl)-4-methylpiperidin-4-yl)-N-methylacetamide] | < 4.52 | < 4.52 | < 4.52 | 5.00 to 6.00 | – | – |
| OCC1(Cc2ccc(Cl)cc2)CCN(CCOc2ccccc2C(F)(F)F)CC1 [Compound 214, (4-(4-chlorobenzyl)-1-(2-(2-(trifluoromethyl)phenoxy)ethyl)piperidin-4-yl)methanol] | 5.00 to 6.00 | < 4.52 | 5.00 to 6.00 | 5.00 to 6.00 | – | – |
| CC1(Cc2ccc(Cl)cc2)CCN(CCOc2ccccc2C(F)(F)F)CC1 [Compound 215, 4-(4-chlorobenzyl)-4-methyl-1-(2-(2-(trifluoromethyl)phenoxy)ethyl)piperidine] | 4.52 to 5.00 | 5.00 to 6.00 | 5.00 to 6.00 | 5.00 to 6.00 | – | – |
| FC(F)(F)c1ccccc1OCCN1CCC2(CC1)CC2c1ccc(Cl)cc1 (stereo not drawn) [Compound 216, 1-(4-chlorophenyl)-6-(2-(2-(trifluoromethyl)phenoxy)ethyl)-6-azaspiro[2.5]octane] | < 4.52 | < 4.52 | 4.52 to 5.00 | < 4.52 | – | – |
| CN(C1CCCCC1)C1(C)CCN(CCOc2ccccc2C(F)(F)F)CC1 [Compound 217, N-cyclohexyl-N,4-dimethyl-1-(2-(2-(trifluoromethyl)phenoxy)ethyl)piperidin-4-amine] | – | < 4.52 | – | 6.00 to 7.00 | 5.00 to 6.00 | 5.00 to 6.00 |
| CC1(C(=O)Nc2ccccc2)CCN(CCOc2ccccc2C(F)(F)F)CC1 [Compound 219, 4-methyl-N-phenyl-1-(2-(2-(trifluoromethyl)phenoxy)ethyl)piperidine-4-carboxamide] | 6.00 to 7.00 | < 4.52 | 6.00 to 7.00 | < 4.52 | – | – |
| CC1(C(=O)Nc2ccccc2)CCN(CCOc2ccccc2F)CC1 [Compound 220, 1-(2-(2-fluorophenoxy)ethyl)-4-methyl-N-phenylpiperidine-4-carboxamide] | 6.00 to 7.00 | < 4.52 | 6.00 to 7.00 | 6.00 to 7.00 | – | – |
| OC1(Cc2ccccc2F)CCN(CCOc2ccccc2)C1 (stereo not drawn) [Compound 300, 3-(2-fluorobenzyl)-1-(2-phenoxyethyl)pyrrolidin-3-ol, reference compound] | < 4.52 | < 4.52 | 4.52 to 5.00 | 6.00 to 7.00 | – | – |
| COc1ccccc1OCCN1CCC(C)(O)CC1 [Compound 301, reference compound] | 6.00 to 7.00 | < 4.52 | 5.00 to 6.00 | < 4.52 | – | – |
| C#CC1(O)CCN(CCOc2ccccc2C(F)(F)F)CC1 [Compound 302, 4-ethynyl-1-(2-(2-(trifluoromethyl)phenoxy)ethyl)piperidin-4-ol, reference compound] | > 7.00 | < 4.52 | > 7.00 | < 4.52 | – | – |
| CC1(N)CCN(C[C@H]2COc3ccccc3O2)CC1 [Compound 303, reference compound] | < 4.52 | < 4.52 | 4.52 to 5.00 | 6.00 to 7.00 | – | – |
| CC1(Oc2cccc([N+](=O)[O-])c2)CCN(CCOc2ccccc2)C1 (stereo not drawn) [Example 40, 3-Methyl-3-(3-nitrophenoxy)-1-(2-phenoxyethyl)pyrrolidine] | < 4.52 | < 4.52 | 5.00 to 6.00 | 6.00 to 7.00 | – | – |
| CC1(Oc2cccc(N)c2)CCN(CCOc2ccccc2)C1 (stereo not drawn) [Example 41, 3-((3-methyl-1-(2-phenoxyethyl)pyrrolidin-3-yl)oxy)aniline] | < 4.52 | < 4.52 | 4.52 to 5.00 | 6.00 to 7.00 | – | – |
| CC1(Oc2cccc(Cl)c2)CCN(CCOc2ccccc2)C1 (stereo not drawn) [Example 42, 3-(3-chlorophenoxy)-3-methyl-1-(2-phenoxyethyl)pyrrolidine] | < 4.52 | < 4.52 | 5.00 to 6.00 | > 7.00 | – | – |
| CC1(Oc2ccc([N+](=O)[O-])cc2)CCN(CCOc2ccccc2)C1 (stereo not drawn) [Example 43, 3-Methyl-3-(4-nitrophenoxy)-1-(2-phenoxyethyl)pyrrolidine] | < 4.52 | < 4.52 | 5.00 to 6.00 | < 4.52 | – | – |
| CC1(Oc2ccc(N)cc2)CCN(CCOc2ccccc2)C1 (stereo not drawn) [Example 44, 4-((3-methyl-1-(2-phenoxyethyl)pyrrolidin-3-yl)oxy)aniline] | < 4.52 | 6.00 to 7.00 | < 4.52 | > 7.00 | – | – |

| Structure (SMILES) | pIC50 (human D2R/β-arrestin [1]; [5]) | pEC50 (human D2R/β-arrestin [2]) | pIC50 (human D2R/β-arrestin [3]; [6]) | pEC50 (human D2R/β-arrestin [4]) | pIC50 (human D2R/β-arrestin [1]) | pIC50 (human D2R/β-arrestin [3]) |
| --- | --- | --- | --- | --- | --- | --- |
| CC1(Oc2ccccc2[N+](=O)[O-])CCN(CCOc2ccccc2)C1 (stereo not drawn) [Example 45, 3-methyl-3-(2-nitrophenoxy)-1-(2-phenoxyethyl)pyrrolidine] | < 4.52 | < 4.52 | 5.00 to 6.00 | > 7.00 | – | – |
| CC1(Oc2ccccc2Cl)CCN(CCOc2ccccc2)C1 (stereo not drawn) [Example 47, 3-(2-chlorophenoxy)-3-methyl-1-(2-phenoxyethyl)pyrrolidine] | < 4.52 | < 4.52 | 5.00 to 6.00 | 6.00 to 7.00 | – | – |
| CC1(Oc2ccc(Cl)cc2Cl)CCN(CCOc2ccccc2)C1 (stereo not drawn) [Example 48, 3-(2,4-dichlorophenoxy)-3-methyl-1-(2-phenoxyethyl)pyrrolidine] | < 4.52 | < 4.52 | 4.52 to 5.00 | > 7.00 | – | – |
| CC1(Oc2cccc(Cl)c2Cl)CCN(CCOc2ccccc2)C1 (stereo not drawn) [Example 49, 3-(2,3-dichlorophenoxy)-3-methyl-1-(2-phenoxyethyl)pyrrolidine] | < 4.52 | < 4.52 | 4.52 to 5.00 | 6.00 to 7.00 | – | – |
| CC1(Oc2ccc(F)cc2)CCN(CCOc2ccccc2)C1 (stereo not drawn) [Example 51, 3-(4-fluorophenoxy)-3-methyl-1-(2-phenoxyethyl)pyrrolidine] | < 4.52 | < 4.52 | 6.00 to 7.00 | > 7.00 | – | – |
| CC1(Oc2cccc(F)c2)CCN(CCOc2ccccc2)C1 (stereo not drawn) [Example 52, 3-(3-fluorophenoxy)-3-methyl-1-(2-phenoxyethyl)pyrrolidine] | < 4.52 | < 4.52 | 5.00 to 6.00 | > 7.00 | – | – |
| CC1(Oc2ccccc2C(F)(F)F)CCN(CCOc2ccccc2)C1 (stereo not drawn) [Example 56, 3-Methyl-1-(2-phenoxyethyl)-3-(2-(trifluoromethyl)phenoxy) pyrrolidine] | 5.00 to 6.00 | < 4.52 | 5.00 to 6.00 | > 7.00 | – | – |
| CC1(Oc2ccccn2)CCN(CCOc2ccccc2)C1 (stereo not drawn) [Example 57, 2-((3-methyl-1-(2-phenoxyethyl)pyrrolidin-3-yl)oxy)pyridine] | < 4.52 | < 4.52 | 5.00 to 6.00 | 6.00 to 7.00 | – | – |
| CC1(Oc2cccnc2)CCN(CCOc2ccccc2)C1 (stereo not drawn) [Example 58, 3-((3-methyl-1-(2-phenoxyethyl)pyrrolidin-3-yl)oxy)pyridine] | < 4.52 | 5.00 to 6.00 | < 4.52 | > 7.00 | – | – |
| CC1(Oc2cnccn2)CCN(CCOc2ccccc2)C1 (stereo not drawn) [Example 60, 2-((3-methyl-1-(2-phenoxyethyl)pyrrolidin-3-yl)oxy)pyrazine] | < 4.52 | 6.00 to 7.00 | < 4.52 | > 7.00 | – | – |
| CC1(Oc2cccc(C(F)(F)F)c2)CCCN(CCOc2ccccc2F)C1 (stereo not drawn) [Example 61, 1-(2-(2-Fluorophenoxy)ethyl)-3-methyl-3-(3-(trifluoromethyl)phenoxy) piperidine] | 6.00 to 7.00 | < 4.52 | 5.00 to 6.00 | < 4.52 | – | – |
| CC1(Oc2cccc(C(F)(F)F)c2)CCCN(CCOc2cc(F)ccc2F)C1 (stereo not drawn) [Example 62, 1-(2-(2,5-Difluorophenoxy)ethyl)-3-methyl-3-(3-(trifluoromethyl)phenoxy)piperidine] | 5.00 to 6.00 | < 4.52 | 5.00 to 6.00 | < 4.52 | – | – |
| CC1(Oc2cccc(C(F)(F)F)c2)CCCN(CCOc2ccccc2Cl)C1 (stereo not drawn) [Example 63, 1-(2-(2-Chlorophenoxy)ethyl)-3-methyl-3-(3-(trifluoromethyl)phenoxy) piperidine] | 5.00 to 6.00 | < 4.52 | 5.00 to 6.00 | < 4.52 | – | – |
| CC1(Oc2cccc(C(F)(F)F)c2)CCN(CCOc2ccccc2F)C1 (stereo not drawn) [Example 64, 1-(2-(2-fluorophenoxy)ethyl)-3-methyl-3-(3-(trifluoromethyl)phenoxy) pyrrolidine] | < 4.52 | < 4.52 | 4.52 to 5.00 | 6.00 to 7.00 | – | – |
| CC1(Oc2cccc(C(F)(F)F)c2)CCN(CCOc2ccccc2Cl)C1 (stereo not drawn) [Example 65, 1-(2-(2-Chlorophenoxy)ethyl)-3-methyl-3-(3-(trifluoromethyl)phenoxy) pyrrolidine] | 6.00 to 7.00 | < 4.52 | 5.00 to 6.00 | < 4.52 | – | – |
| CC1(Oc2cccc(C(F)(F)F)c2)CCN(CCOc2cc(F)ccc2F)C1 (stereo not drawn) [Example 66, 1-(2-(2,5-difluorophenoxy)ethyl)-3-methyl-3-(3-(trifluoromethyl)phenoxy)pyrrolidine] | 4.52 to 5.00 | < 4.52 | 5.00 to 6.00 | > 7.00 | – | – |
